Data on 35 compounds can be found in US20040192686A1, “Benzoazine mono-N-oxides and benzoazine 1,4 dioxides and compositions therefrom for the therapeutic use in cancer treatments” (Auckland Uniservices Limited, priority 2003, published 2004).

≈ marks a conversion by molar mass, not a printed value. Read-outs that look alike come from different tables or passages of the source. Some results are limits rather than exact numbers.

Data set [1] in a line: Approximate solubility limit in Alpha MEM culture medium containing 5% fetal calf serum. The conditions noted are these: dilution from DMSO stock solutions; for solubility: plasma or biological fluid, kinetic from dmso stock. It is filed as physicochemical.
In data set [2] the test system is HT29 colon carcinoma cells. Nature of the data set: IC50 assay of potentiator alone, HT29 cells, 4 hr anoxic exposure, sulphorhodamine B staining. The data set is classed as cell-based, human. The conditions noted are these: cell density by sulphorhodamine B five days after washing out. (In general: The SRB assay estimates cell density from bound dye.)
In data set [3] the test system is HT29 cells. Nature of the data set: TPZ potentiation test: IC50 of TPZ with and without potentiator, anoxic HT29 cells. It is filed as cell-based, human. The settings on record: 4 hr anoxic exposure of HT29 cells.
The subject of data set [4] is HT29 cells. Nature of the data set: Radiosensitisation of anoxic HT29 cells. It is filed as cell-based, human. The settings on record: 0.6 mM of each agent; anoxic HT29 cells irradiated 5 min after drug addition. The procedure:
Anoxic cell suspensions were irradiated 5 min after addition of pre-equilibrated anoxic drug solutions. Data are shown for duplicate determinations, and are fitted using a linear-quadratic model

In data set [5] the test system is HT29 human colon carcinoma cells. The data set is described as follows: Cytotoxicity (plating efficiency) in stirred single cell suspensions of HT29 cells, anoxic or aerobic. The text has this:
Cultures were maintained at <10 ppm O2 under a continuously-flowing stream of 5% CO2 in nitrogen and were sampled at intervals to determine plating efficiency.
Experimental conditions were as for FIG. 2, except that the gas phase was 5% CO2 in air. Values are means and error bars are ranges for duplicate cultures.
Drug exposure time was 1 hr. Error bars represent the range for duplicate determinations.

The mark [6] stands for this setting: Homo sapiens, HT-29, 4 hr exposure under anoxic conditions.
[7] abbreviates: conc of potentiator 3 mM (compound 56: approximate, slight precipitation).

In data set [1], `CNCCNc1nc2ccccc2[n+]([O-])n1` [Compound 130, N^1-Methyl-#f-(1-oxido-1,2,4-benzotriazin-3-yl)-1,2-ethanediamine] showed a solubility of 3000 µM (≈ 658 µg/mL). In addition, the IC50 in data set [2] (setting [6]) came out at 2300 µM. Further, the “TPR (TPZ potentiation ratio) = TPZ IC50 without potentiator/TPZ IC50 with potentiator” value in data set [3] (conc of potentiator 1.0 mM) is 6.1. For the compound `[O-][n+]1nc(CCO)nc2ccccc21` [Compound 61, 3-(2-Hydroxyethyl)-1,2,4-benzotriazine 1-oxide], the concentration in solution in data set [1] (solubility) came to 3000 µM (≈ 574 µg/mL). The IC50 in data set [2] (setting [6]) is above 3000 µM. For the same compound, the “TPR (TPZ potentiation ratio) = TPZ IC50 without potentiator/TPZ IC50 with potentiator” value in data set [3] (setting [7]) is 1.2. Consider `CCc1nc2ccccc2[n+]([O-])n1` [Compound 56, 3-Ethyl-1,2,4-benzotriazine 1-oxide], for which the solubility in data set [1] stood at 3000 µM (≈ 526 µg/mL). In addition, in data set [2] (setting [6]), the IC50 is above 3000 µM. Besides, the “TPR (TPZ potentiation ratio) = TPZ IC50 without potentiator/TPZ IC50 with potentiator” value in data set [3] (setting [7]) is recorded as 1.3. Turning to `CN(C)CCCNc1nc2ccccc2[n+]([O-])n1` [Compound 44, N^1-(1-Oxido-1,2,4-benzotriazin-3-yl)-N^3,N^3-dimethyl-1,3-propan diamin], the Solubility limit in data set [1] is 3000 µM (≈ 742 µg/mL). For the same compound, the IC50 in data set [2] (4 hr exposure under anoxic conditions) amounted to 830 µM. Besides, in data set [3] (conc of potentiator 0.3 mM), the “TPR (TPZ potentiation ratio) = TPZ IC50 without potentiator/TPZ IC50 with potentiator” value is given as 1.2.

On to `COCC(O)Cn1ccnc1[N+](=O)[O-]` (stereo not drawn) [misonidazole, reference compound], for which the “Relative potency for radiosensitization of hypoxic HT29 cells” value in data set [4] is recorded as “misonidazole>metronidazole=SR4317”. Further, in data set [5] (TPZ 30 μM, anoxic HT29 cells 5×10^5/ml, drug exposure 1 hr), the “Relative dose potency for potentiation of the hypoxic cytotoxicity of TPZ” value is recorded as “lower dose potency than SR 4317”. As for `Cc1ncc([N+](=O)[O-])n1CCO` [metronidazole, reference compound], the “Relative potency for radiosensitization of hypoxic HT29 cells” value in data set [4] was “misonidazole>metronidazole=SR4317”. In data set [5], the “Relative dose potency for potentiation of the hypoxic cytotoxicity of TPZ” value is given as “lower dose potency than SR 4317”. Compound `CN(C)c1ccc2nc(N)n[n+]([O-])c2c1` [Compound 11, N^7,N^7-Dimethyl-1,2,4-benzotriazine-3,7-diamine 1-oxide] returned a melting point of 231 to 233 °C.

For `[O-][n+]1nc(NCCN2CCOCC2)nc2ccccc21` [Compound 41, N-[2-(4-Morpholinyl)ethyl]-1,2,4-benzotriazin-3-amine 1-oxide], the melting point lay in the range of 170 to 172 °C. In the case of `Cc1ccc2c(c1)nc(NCCN1CCOCC1)n[n+]2[O-]` [Compound 138, 6-Methyl-N-[2-(4-morpholinyl)ethyl]-1,2,4-benzotriazin-3-amine 1-Oxide], the melting point was in the range of 182 to 184 °C. Regarding `CN(C)CCNc1nc2ccccc2[n+]([O-])n1` [Compound 37, N^1,N^1-Dimethyl-N^2-(1-oxido-1,2,4-benzotriazin-3-yl)-1,2-ethanediamine], in data set [1], the solubility was found to be 1000 µM (≈ 233 µg/mL). Moreover, the IC50 in data set [2] (setting [6]) is above 1000 µM. Moreover, in data set [3] (conc of potentiator 1.0 mM), the “TPR (TPZ potentiation ratio) = TPZ IC50 without potentiator/TPZ IC50 with potentiator” value came out at 13.9. In the case of `CCN(CCCNc1nc2ccccc2[n+]([O-])n1)C(=O)OC(C)(C)C` [Compound 32, tert-Butyl 3-[(1-oxido-1,2,4-benzotriazin-3-yl)amino]propyl(ethyl)carbamate], the melting point is 64 to 66 °C.

`CCc1nc2cc(F)ccc2[n+]([O-])n1` [Compound 160, 3-Ethyl-6-fluoro-1,2,4-benzotriazine 1-oxide] registered a melting point of 122 to 124 °C.

With `CC(C)c1ccc2c(c1)nc(NCCN1CCOCC1)n[n+]2[O-]` [Compound 149, 6-Isopropyl-N-[2-(4-morpholinyl)ethyl]-1,2,4-benzotriazin-3-amine 1-Oxide], the melting point lay in the range of 145 to 147 °C.

Take `Nc1nc2ccc(Cl)cc2[n+]([O-])n1` [Compound 3l, 7-Chloro-1,2,4-benzotriazin-3-amine 1-oxide]: the melting point is 309 °C (dec.). As for `[O-][n+]1nc(NCCN2CCCCC2)nc2cc(Cl)ccc21` [Compound 135, 6-Chloro-N-[2-(1-piperidinyl)ethyl]-1,2,4-benzotriazin-3-amine 1-Oxide], the melting point lay in the range of 178 to 181 °C.

Consider `[O-][n+]1nc(Cl)nc2cc(C(F)(F)F)ccc21` [Compound 142, 3-Chloro-6-trifluoromethyl-1,2,4-benzotriazine 1-Oxide], for which the melting point is 118 to 120 °C. `COCCNC(=O)Cc1ccc(Nc2nc3ccccc3[n+]([O-])n2)cc1` [Compound 53, 2-{4-[(1-Oxido-1,2,4-benzotriazin-3-yl)amino]phenyl}-N-(2-methoxyethyl)acetamide] came in with a melting point of 216 to 218 °C.

`CC(C)(C)c1ccc2c(c1)nc(NCCN1CCOCC1)n[n+]2[O-]` [Compound 157, 6-tert-Butyl-N-[2-(4-morpholinyl)ethyl]-1,2,4-benzotriazin-3-amine 1-Oxide] came in with a melting point of 132 to 134 °C. For the compound `CC(C)c1ccc2c(c1)nc(NCCN(C)C)n[n+]2[O-]` [Compound 147, N^1-(6-Isopropyl-1-oxido-1,2,4-benzotriazin-3-yl)-N^2,N^2-dimethyl-1,2-ethanediamine], the melting point is 87 to 89 °C. Regarding `[N-]=[N+]=NCCOCCNc1nc2ccccc2[n+]([O-])n1` [Compound 34, 3-{[2-(2-Azidoethoxy)ethyl]amino}-1,2,4-benzotriazine 1-oxide], the melting point lay in the range of 102 to 104 °C. Compound `CC(C)(C)c1ccc2c(c1)nc(Cl)n[n+]2[O-]` [Compound 154, 6-tert-Butyl-3-chloro-1,2,4-benzotriazine 1-oxide] came in with a melting point of 91 to 94 °C. `C=CCc1nc2ccccc2[n+]([O-])n1` [Compound 60, 3-Allyl-1,2,4-benzotriazine 1-oxide] showed a melting point of 57 to 58 °C. With `COc1nc2ccccc2[n+]([O-])n1` [Compound 71, 3-Methoxy-1,2,4-benzotriazine 1-oxide], the solubility in data set [1] is 300 µM (≈ 53.1 µg/mL). Besides, in data set [2] (setting [6]), the IC50 is above 300 µM. The “TPR (TPZ potentiation ratio) = TPZ IC50 without potentiator/TPZ IC50 with potentiator” value in data set [3] (conc of potentiator 0.3 mM) was 3.3. Turning to `COc1cc2c(cc1C)nc(NCCN(C)C)n[n+]2[O-]` [Compound 118, N^1,N^1-Dimethyl-N^2-(7-methoxy-6-methyl-1-oxido-1,2,4-benzotriazin-3-yl)-1,2-ethanediamine], the melting point was 182 to 184 °C. For the compound `Cc1cccc2nc(N)n[n+]([O-])c12` [Compound 3b, 8-Methyl-1,2,4-benzotriazin-3-amine 1-oxide], the melting point was 265 °C (dec.). With `CCCCSc1ccc2nc(N)n[n+]([O-])c2c1` [Compound 3o, 7-(Butylsulfanyl)-1,2,4-benzotriazin-3-amine 1-oxide], the melting point lay in the range of 215 to 217 °C.

`COc1cc2nc(N)n[n+]([O-])c2cc1C` [Compound 112, 6-Methoxy-7-methyl-1,2,4-benzotriazin-3-amine 1-oxide] returned a melting point of 289 to 292 °C. Take `CCCCSc1ccc2c(c1)nc(N)n[n+]2[O-]` [Compound 3x, 6-(Butylsulfanyl)-1,2,4-benzotriazin-3-amine 1-oxide]: the melting point fell in the range of 180 to 182 °C. In turn, `COc1ccc2c(c1)nc(NCCN1CCCCC1)n[n+]2[O-]` [Compound 85, 6-Methoxy-N-[2-(1-piperidinyl)ethyl]-1,2,4-benzotriazin-3-amine 1-oxide] yielded a melting point of 133 to 135 °C. Same read-out and setting: then `CCCCSc1cccc2nc(N)n[n+]([O-])c12` [Compound 3g, 8-(Butylsulfanyl)-1,2,4-benzotriazin-3-amine 1-oxide], with 233 to 236 °C; and `[O-][n+]1nc(CCCO)nc2ccccc21` [Compound 66, 3-(3-Hydroxypropyl)-1,2,4-benzotriazine 1-oxid], with 99 to 100 °C. For the compound `Cc1cc2nc(Cl)n[n+]([O-])c2cc1C` [Compound 104, 3-Chloro-6,7-dimethyl-1-oxido-1,2,4-benzotriazine], the melting point lay within 148 to 149 °C.

Consider `CCN(CC)CCNc1nc2cc(C(C)C)ccc2[n+]([O-])n1` [Compound 148, N^1-(6-Isopropyl-1-oxido-1,2,4-benzotriazin-3-yl)-N^2,N^2-diethyl-1,2-ethanediamine], for which the melting point lay in the range of 60 to 62 °C. Regarding `N#CCNc1nc2ccccc2[n+]([O-])n1` [Compound 25, 2-[(1-Oxido-1,2,4-benzotriazin-3-yl)amino]acetonitrile], the solubility in data set [1] was 300 µM (≈ 60.4 µg/mL). Also, the IC50 in data set [2] (setting [6]) was above 300 µM. Further, the “TPR (TPZ potentiation ratio) = TPZ IC50 without potentiator/TPZ IC50 with potentiator” value in data set [3] (conc of potentiator 0.2 mM) is recorded as 1.9. `COc1ccc2c(c1)nc(N)n[n+]2[O-]` [Compound 3q, 6-Methoxy-1,2,4-benzotriazin-3-amine 1-oxide] came in with a melting point of 265 to 270 °C.

For orientation: solubility means how much of the substance goes into solution per volume. The low end stands for a poorly soluble substance, the high end for a readily soluble substance. The term IC50 denotes the concentration at which inhibition is half-maximal. By melting point is commonly meant the temperature, or range, at which the solid turns liquid.
